Test results from patent US20060004019A1, “Steroid sparing agents and methods of using same” (priority 2004, published 2006).

Tests used:
[1] = system: Lewis X Brown Norway F1 hearts transplanted to Lewis recipients; test: Rat cardiac allograft model, Allograft Study 1 (summary across three studies); assay type: in vivo; conditions: vehicle day +9
Description: Allograft rejection is defined as the expression of an immune reaction of the recipient, against foreign antigens of the transplanted tissue. This reaction is mediated by T lymphocytes. Cell adhesion events are of critical importance in the T-cell recognition of alloantigens, the trafficking of recipient immune and inflammatory cells into the graft, and the execution of cell-mediated effector functions. […] This beneficial therapeutic effect correlates with decreased infiltration by α4β1 positive cells, deposition of CS1-FN, and endothelial staining for VCAM-1, as determined by immunohistology/RNAse protection assay.
To further evaluate the therapeutic potential of α4β1 targeted therapy in transplantation rejection, three studies were conducted in a well-defined rat cardiac transplant model. The following report summarizes the data across all three studies.

rat cardiac allografts [2] = test: Rat cardiac allograft study, Allograft Study 3 (Table 21); assay type: in vivo; conditions: for number of surviving grafts within each group / percent of surviving grafts within a group: s.c., GG5/3 3 mg/kg, compound 30 mg/kg
Procedure: Cardiac allografts were established. […] A total of 20 allografts, amongst 4 groups, were evaluated in the study.

rat cardiac allografts [3] = test: Rat cardiac allograft study, Allograft Study 2 (Table 20); conditions: for number of surviving grafts within each group: s.c., GG5/3 3 mg/kg, compounds 30 mg/kg;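 for all read-outs here: lewis x Brown Norway F1 hearts grafted abdominally into male Lewis rats, palpated daily, rejection meaning complete loss of heartbeat, day 0 being surgery day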
Procedure: Hearts from Lewis X Brown Norway F1 hybrids were transplanted to the abdominal great vessels of Lewis recipients using standard microvascular techniques. Both rat strains were male inbred rats, weighing 200-300 g. Food and water was available at all times except during surgical and dosing procedures. The day of transplantation was noted as day 0. […] Allograft survival in the rats was evaluated by daily palpation of the transplanted heart through the recipient's flank. Rejection was taken as the day of complete cessation of the graft's heart beat. Upon determination of rejection, the abdomen of the recipient was incised and retracted to confirm cessation of the heart beat in the transplanted heart. If cessation of the heart beat was not confirmed the abdomen was surgically closed, and the grafted heart was evaluated daily.
Cardiac allografts were established. Dosing of compounds began on day 0, prior to transplantation and continued through day +10. […] The vehicle control, 10% ethanol/corn oil, was administered s.c., every 12 hours, day 0 through day +10. The antibody, GG5/3 in 0.9% saline, was administered at 3 mg/kg, s.c., on day 0, +3, +7 and +10. All GG5/3 animals received twice daily s.c. injections of 0.9% saline, every 12 hours, throughout day 0 through day +10. The vehicle control, 0.9% saline, was administered daily, s.c., day 0 through day +10. All dosing solutions were formulated daily at a constant dose volume of 5 ml/kg. The site of injection was rotated at each injection through four possible sites: right and left fore flank, right and left rear flank. A total of 28 allografts, amongst 5 groups, were evaluated in the study. Group 1, consisted of 6 animals treated with the monoclonal antibody, GG5/3. […] Allograft survival was evaluated by daily palpation of the transplanted heart through the recipient's flank. Rejection was taken as the day of complete cessation of graft's heart beat. Upon determination of rejection, the abdomen of the recipient was incised to confirm cessation of the heart beat in the transplanted heart. If cessation of the graft's heart beat was not confirmed the abdomen was surgically closed, and the graft was evaluated daily.

rat cardiac allografts [4] = test: Rat cardiac allograft study, Allograft Study 4 (Table 22);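 note: heterotopic abdominal heart transplants from Lewis × Brown Norway F1 donors into male Lewis rats, graft beating checked daily by flank palpation, rejection defined as complete stop of heartbeat, transplant day 0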; conditions: 30 mg/kg s.c. every 12 h, day -2 to +10
Procedure: Hearts from Lewis X Brown Norway F1 hybrids were transplanted to the abdominal great vessels of Lewis recipients using standard microvascular techniques. Both rat strains were male inbred rats, weighing 200-300 g. Food and water was available at all times except during surgical and dosing procedures. The day of transplantation was noted as day 0. Twelve hours following the last dose approximately 1 ml of blood was collected into lithium/heparin anti-coagulant tubes. If any graft was rejected prior to the last day of dosing, blood samples were taken 12 hours after dosing on the day that graft rejection was noted. All blood samples were centrifuged at 3000 rpm for 10 minutes and the plasma was harvested, frozen on dry ice and stored frozen at −20 C prior to analysis. Allograft survival in the rats was evaluated by daily palpation of the transplanted heart through the recipient's flank. Rejection was taken as the day of complete cessation of the graft's heart beat. Upon determination of rejection, the abdomen of the recipient was incised and retracted to confirm cessation of the heart beat in the transplanted heart. If cessation of the heart beat was not confirmed the abdomen was surgically closed, and the grafted heart was evaluated daily.
Cardiac allografts were established. Dosing of compounds began on day −2, 2 days prior to transplantation and continued through day +10. […] The vehicle control, 0.9% saline, pH adjusted to a value of 5, to match the dosing solution containing the N-[N-(3-pyridinesulfonyl)-L-3,3-dimethyl-4-thiaprolyl]-0-[1-methylpiperazin-4-ylcarbonyl]-L-tyrosine isopropyl ester, was administered via the same route, i.e. every 12 hours, day −2 through day +10. The antibody, GG5/3 in 0.9% saline, was administered at 3 mg/kg, s.c., on day 0, +3, +7 and +10. All GG5/3 animals received twice daily s.c. injections of 0.9% saline, every 12 hours, from day −2 through day +10. The vehicle control, 0.9% saline, was administered daily, s.c., day 0 through day +10. All dosing solutions were formulated daily at a constant dose volume of 5 ml/kg. The site of injection was rotated at each injection through four possible sites: right and left fore flank, right and left rear flank. A total of 21 allografts, amongst 5 groups, were evaluated in the study. […] Two animals within the 0.9% saline group received saline adjusted to a pH a value of 5. (The pH value of the N-[N-(3-pyridinesulfonyl)-L-3,3-dimethyl-4-thiaprolyl]-0-[1-methylpiperazin-4-ylcarbonyl]-L-tyrosine isopropyl ester dosing solution.) The remaining two animals received saline of pH 7. Group 2 consisted of 6 animals treated with the monoclonal antibody, GG5/3. […] Twelve hours following the last dose approximately 1 ml of blood was collected into lithium/heparin anti-coagulant tubes. If any graft was rejected prior to the last day of dosing, blood samples were taken 12 hours after dosing on the day that graft rejection was noted. All samples were centrifuged at 3000 rpm for 10 minutes and the plasma was harvested, frozen on dry ice and stored frozen at −20 C prior to dispatch for analysis. Allograft survival in the rats was evaluated by daily palpation of the transplanted heart through the recipient's flank. Rejection was taken as the day of complete cessation of graft's heart beat. Upon determination of rejection, the abdomen of the recipient was incised to confirm cessation of the heart beat in the transplanted heart. If cessation of the heart beat was not confirmed the abdomen was surgically closed, and the graft was evaluated daily.

CC(C)OC(=O)[C@H](Cc1ccc(OC(=O)N(C)C)cc1)NC(=O)[C@H]1N(S(=O)(=O)c2cnn(C)c2)CSC1(C)C
absolute cardiac allograft survival (last day of graft survival) [1]: 37 day
number of surviving grafts within each group (rat cardiac allografts [2]; Day 0): 6
percent of surviving grafts within a group (rat cardiac allografts [2]; Day 0): 100%
number of surviving grafts within each group (rat cardiac allografts [2]; Day 1): 6
percent of surviving grafts within a group (rat cardiac allografts [2]; Day 1): 100%
number of surviving grafts within each group (rat cardiac allografts [2]; Day 2): 6
percent of surviving grafts within a group (rat cardiac allografts [2]; Day 2): 100%
number of surviving grafts within each group (rat cardiac allografts [2]; Day 3): 6
percent of surviving grafts within a group (rat cardiac allografts [2]; Day 3): 100%
number of surviving grafts within each group (rat cardiac allografts [2]; Day 4): 6
percent of surviving grafts within a group (rat cardiac allografts [2]; Day 4): 100%
number of surviving grafts within each group (rat cardiac allografts [2]; Day 5): 6
percent of surviving grafts within a group (rat cardiac allografts [2]; Day 5): 100%
number of surviving grafts within each group (rat cardiac allografts [2]; Day 6): 6
percent of surviving grafts within a group (rat cardiac allografts [2]; Day 6): 100%
number of surviving grafts within each group (rat cardiac allografts [2]; Day 7): 6
percent of surviving grafts within a group (rat cardiac allografts [2]; Day 7): 100%
number of surviving grafts within each group (rat cardiac allografts [2]; Day 8): 6
percent of surviving grafts within a group (rat cardiac allografts [2]; Day 8): 100%
number of surviving grafts within each group (rat cardiac allografts [2]; Day 9): 4
percent of surviving grafts within a group (rat cardiac allografts [2]; Day 9): 67%
number of surviving grafts within each group (rat cardiac allografts [2]; Day 10): 4
percent of surviving grafts within a group (rat cardiac allografts [2]; Day 10): 67%
number of surviving grafts within each group (rat cardiac allografts [2]; Day 11): 3
percent of surviving grafts within a group (rat cardiac allografts [2]; Day 11): 50%
number of surviving grafts within each group (rat cardiac allografts [2]; Day 12): 3
percent of surviving grafts within a group (rat cardiac allografts [2]; Day 12): 50%
number of surviving grafts within each group (rat cardiac allografts [2]; Day 13): 1
percent of surviving grafts within a group (rat cardiac allografts [2]; Day 13): 16%
number of surviving grafts within each group (rat cardiac allografts [2]; Day 14): 1
percent of surviving grafts within a group (rat cardiac allografts [2]; Day 14): 16%
number of surviving grafts within each group (rat cardiac allografts [2]; Day 15): 1
percent of surviving grafts within a group (rat cardiac allografts [2]; Day 15): 16%
number of surviving grafts within each group (rat cardiac allografts [2]; Day 16): 1
percent of surviving grafts within a group (rat cardiac allografts [2]; Day 16): 16%
number of surviving grafts within each group (rat cardiac allografts [2]; Day 17): 0
percent of surviving grafts within a group (rat cardiac allografts [2]; Day 17): 0%
number of surviving grafts within each group (rat cardiac allografts [2]; Day 18): 0
percent of surviving grafts within a group (rat cardiac allografts [2]; Day 18): 0%
number of surviving grafts within each group (rat cardiac allografts [2]; Day 19): 0
percent of surviving grafts within a group (rat cardiac allografts [2]; Day 19): 0%
graft acceptance out to day (rat cardiac allografts [2]; compound 30 mg/kg s.c. every 12 h, day -2 to +10, GG5/3 3 mg/kg s.c. day 0, +3, +7, +10): 16 days
number of surviving grafts within each group (rat cardiac allografts [3]; Day 0): 6
number of surviving grafts within each group (rat cardiac allografts [3]; Day 1): 6
number of surviving grafts within each group (rat cardiac allografts [3]; Day 2): 6
number of surviving grafts within each group (rat cardiac allografts [3]; Day 3): 6
number of surviving grafts within each group (rat cardiac allografts [3]; Day 4): 6
number of surviving grafts within each group (rat cardiac allografts [3]; Day 5): 6
number of surviving grafts within each group (rat cardiac allografts [3]; Day 6): 6
number of surviving grafts within each group (rat cardiac allografts [3]; Day 7): 6
number of surviving grafts within each group (rat cardiac allografts [3]; Day 8): 6
number of surviving grafts within each group (rat cardiac allografts [3]; Day 9): 6
number of surviving grafts within each group (rat cardiac allografts [3]; Day 10): 5
number of surviving grafts within each group (rat cardiac allografts [3]; Day 11): 3
number of surviving grafts within each group (rat cardiac allografts [3]; Day 12): 3
number of surviving grafts within each group (rat cardiac allografts [3]; Day 13): 2
number of surviving grafts within each group (rat cardiac allografts [3]; Day 14): 1
number of surviving grafts within each group (rat cardiac allografts [3]; Day 15): 1
number of surviving grafts within each group (rat cardiac allografts [3]; Day 16): 0
graft survival (in words) (rat cardiac allografts [3]; compounds 30 mg/kg s.c. every 12 h, GG5/3 3 mg/kg s.c. day 0, +3, +7, +10): significant graft survival, resembling the results obtained from the GG5/3 group
allograft acceptance compared with GG5/3 (rat cardiac allografts [4]): significantly prolong allograft acceptance beyond the level obtain with GG5/3
graft survival rate on day +19 (rat cardiac allografts [4]): Fifty percent or greater
longest surviving graft (one graft) (rat cardiac allografts [4]): 37 days

Cc1ccc(S(=O)(=O)N2CCC[C@H]2C(=O)N[C@@H](Cc2ccc(OC(=O)N3CCN(CCO)CC3)cc2)C(=O)OC(C)(C)C)cc1
melting point: 158 to 160 °C
